≈ marks a conversion by molar mass, not a printed value. Calls of active or inactive are those of the source. The calls are words filed in the database; no cut-off is given here.
Columns and labels:
SW480 = test: Cytotoxicity against human SW480 cells incubated for 72 hrs by MTT assay; assay type: functional, cell-based; conditions: SW480, 72 h
SW-620 = test: Cytotoxicity against human SW620 cells incubated for 72 hrs by MTT assay; assay type: functional, cell-based; conditions: SW-620, 72 h
PC-3 = test: Cytotoxicity against human PC-3 cells incubated for 72 hrs by MTT assay; assay type: functional, cell-based; conditions: PC-3, 72 h
MDA-MB-231 [1] = test: Cytotoxicity against human MDA-MB-231 cells incubated for 72 hrs by MTT assay; assay type: functional, cell-based; conditions: MDA-MB-231, 72 h
A549 [2] = test: Cytotoxicity against human A549 cells incubated for 72 hrs by MTT assay; assay type: functional, cell-based; conditions: A549, 72 h
[3] = Cytotoxicity against human HaCaT cells incubated for 72 hrs by MTT assay; assay type: toxicity, cell-based
[4] = Cytotoxicity against chinese hamster V79 cells incubated for 72 hrs by MTT assay; assay type: toxicity, cell-based, Cricetulus griseus
[5] = Selectivity index, ratio of IC50 for cytotoxicity against human HaCaT cells to IC50 for cytotoxicity against human SW480 cells; assay type: toxicity, cell-based; conditions: HaCaT cells versus SW480 cells, read-out: Ratio IC50
[6] = Selectivity index, ratio of IC50 for cytotoxicity against human HaCaT cells to IC50 for cytotoxicity against human SW620 cells; assay type: toxicity, cell-based; conditions: HaCaT cells versus SW620 cells, read-out: Ratio IC50
[7] = Selectivity index, ratio of IC50 for cytotoxicity against human HaCaT cells to IC50 for cytotoxicity against human PC-3 cells; assay type: toxicity, cell-based; conditions: HaCaT cells versus PC-3 cells, read-out: Ratio IC50
[8] = Selectivity index, ratio of IC50 for cytotoxicity against human HaCaT cells to IC50 for cytotoxicity against human MDA-MB-231 cells; assay type: toxicity, cell-based; conditions: HaCaT cells versus MDA-MB-231 cells, read-out: Ratio IC50
[9] = Selectivity index, ratio of IC50 for cytotoxicity against human HaCaT cells to IC50 for cytotoxicity against human A549 cells; assay type: toxicity, cell-based; conditions: HaCaT cells versus A549 cells, read-out: Ratio IC50
[10] = Selectivity index, ratio of IC50 for cytotoxicity against chinese hamster V79 cells to IC50 for cytotoxicity against human SW480 cells; assay type: toxicity, cell-based; conditions: V79 cells versus SW480 cells, read-out: Ratio IC50
[11] = Selectivity index, ratio of IC50 for cytotoxicity against chinese hamster V79 cells to IC50 for cytotoxicity against human SW620 cells; assay type: toxicity, cell-based; conditions: V79 cells versus SW620 cells, read-out: Ratio IC50
[12] = Selectivity index, ratio of IC50 for cytotoxicity against chinese hamster V79 cells to IC50 for cytotoxicity against human PC-3 cells; assay type: toxicity, cell-based; conditions: V79 cells versus PC-3 cells, read-out: Ratio IC50
[13] = Selectivity index, ratio of IC50 for cytotoxicity against chinese hamster V79 cells to IC50 for cytotoxicity against human MDA-MB-231 cells; assay type: toxicity, cell-based; conditions: V79 cells versus MDA-MB-231 cells, read-out: Ratio IC50
[14] = Selectivity index, ratio of IC50 for cytotoxicity against chinese hamster V79 cells to IC50 for cytotoxicity against human A549 cells; assay type: toxicity, cell-based; conditions: V79 cells versus A549 cells, read-out: Ratio IC50
A549 [15] = test: Effect on mitochondrial mass in human A549 cells assessed as increase in mean fluorescence intensity at IC50 incubated for 48 hrs by MitoTracker Green FM staining based flow cytometry analysis; assay type: functional, cell-based
MDA-MB-231 [16] = test: Effect on mitochondrial mass in human MDA-MB-231 cells assessed as increase in mean fluorescence intensity at IC50 incubated for 48 hrs by MitoTracker Green FM staining based flow cytometry analysis; assay type: functional, cell-based
A549 [17] = test: Effect on mitochondrial function in human A549 cells assessed as change in mean fluorescence intensity at IC50 incubated for 48 hrs by MitoTracker Red CMXRos staining based flow cytometry analysis; assay type: functional, cell-based
Mitochondrial membrane [18] = test: Induction of mitochondrial membrane potential loss in human A549 cells assessed as green fluorescence at IC50 incubated for 48 hrs MitoTracker Green FM staining based flow cytometry analysis (reference value: 8.93 %); assay type: cell membranes
MDA-MB-231 [19] = test: Induction of cell cycle arrest in human MDA-MB-231 cells assessed as inhibition of cell division at IC50 incubated for 24 hrs by propidium iodide staining based flow cytometry analysis; assay type: functional
A549 [20] = test: Induction of apoptosis in human A549 cells assessed as viable cells at IC50 incubated for 72 hrs by Annexin V-FITC staining based flow cytometry analysis (reference value: 95.49 %); assay type: functional
A549 [21] = test: Induction of apoptosis in human A549 cells assessed as early apoptotic cells at IC50 incubated for 72 hrs by Annexin V-FITC staining based flow cytometry analysis (reference value: 1.68 %); assay type: functional
A549 [22] = test: Induction of apoptosis in human A549 cells assessed as late apoptotic cells at IC50 incubated for 72 hrs by Annexin V-FITC staining based flow cytometry analysis (reference value: 1.86 %); assay type: functional
A549 [23] = test: Induction of apoptosis in human A549 cells assessed as necrotic cells at IC50 incubated for 72 hrs by Annexin V-FITC staining based flow cytometry analysis (reference value: 0.97 %); assay type: functional
MDA-MB-231 [24] = test: Induction of apoptosis in human MDA-MB-231 cells assessed as viable cells at IC50 incubated for 72 hrs by Annexin V-FITC staining based flow cytometry analysis (reference value: 91.53 %); assay type: functional
MDA-MB-231 [25] = test: Induction of apoptosis in human MDA-MB-231 cells assessed as early apoptotic cells at IC50 incubated for 72 hrs by Annexin V-FITC staining based flow cytometry analysis (reference value: 4.23 %); assay type: functional
MDA-MB-231 [26] = test: Induction of apoptosis in human MDA-MB-231 cells assessed as late apoptotic cells at IC50 incubated for 72 hrs by Annexin V-FITC staining based flow cytometry analysis (reference value: 3.07 %); assay type: functional
MDA-MB-231 [27] = test: Induction of apoptosis in human MDA-MB-231 cells assessed as necrotic cells at IC50 incubated for 72 hrs by Annexin V-FITC staining based flow cytometry analysis (reference value: 1.17 %); assay type: functional
Mitochondrial membrane [28] = test: Induction of mitochondrial membrane potential loss in human MDA-MB-231 cells assessed as green fluorescence at IC50 incubated for 48 hrs MitoTracker Green FM staining based flow cytometry analysis (reference value: 8.86 %); assay type: cell membranes
Mitochondrial membrane [29] = test: Induction of mitochondrial membrane potential loss in human MDA-MB-231 cells assessed as red fluorescence at IC50 incubated for 48 hrs MitoTrackerRed CMXRos staining based flow cytometry analysis (reference value: 91.1 %); assay type: cell membranes
Mitochondrial membrane [30] = test: Induction of mitochondrial membrane potential loss in human A549 cells assessed as red fluorescence at IC50 incubated for 48 hrs MitoTrackerRed CMXRos staining based flow cytometry analysis (reference value: 91.1 %); assay type: cell membranes
A549 [31] = test: Induction of ROS generation of human A549 cells at IC50 incubated for 6 hrs by CellROX Green staining based spectrofluorometer analysis; assay type: functional, cell-based
MDA-MB-231 [32] = test: Induction of ROS generation of human MDA-MB-231 cells at IC50 incubated for 6 hrs by CellROX Green staining based spectrofluorometer analysis; assay type: functional, cell-based
Staphylococcus aureus [33] = test: Antimicrobial activity against Staphylococcus aureus NCTC 4163 incubated for 18 hrs by twofold microdilution method; assay type: functional
Staphylococcus aureus [34] = test: Antimicrobial activity against Staphylococcus aureus ATCC 25923 incubated for 18 hrs by twofold microdilution method; assay type: functional
Staphylococcus aureus [35] = test: Antimicrobial activity against Staphylococcus aureus ATCC 6538 incubated for 18 hrs by twofold microdilution method; assay type: functional
Staphylococcus aureus [36] = test: Antimicrobial activity against Staphylococcus aureus ATCC 29213 incubated for 18 hrs by twofold microdilution method; assay type: functional
[37] = test system: Staphylococcus epidermidis; test: Antimicrobial activity against Staphylococcus epidermidis ATCC 12228 incubated for 18 hrs by twofold microdilution method; assay type: functional
[38] = test system: Staphylococcus epidermidis; test: Antimicrobial activity against Staphylococcus epidermidis ATCC 35984 incubated for 18 hrs by twofold microdilution method; assay type: functional
Escherichia coli = test: Antimicrobial activity against Escherichia coli ATCC 25922 incubated for 18 hrs by twofold microdilution method; assay type: functional
Pseudomonas aeruginosa = test: Antimicrobial activity against Pseudomonas aeruginosa ATCC 15442 incubated for 18 hrs by twofold microdilution method; assay type: functional
A549 [39] = test: Induction of mitochondrial respiration in human A549 cells assessed as oxygen consumption rate at 0.1 to 10 uM by Oxygraph-2K system; assay type: functional, cell-based; conditions: dose 0.1-10 µM
Lipid bilayer [40] = test: Induction of ionic transport in azolectin bilayer membrane assessed as specific channel-like structure formation in presence of HEPES buffer by electrophysiology technique
Lipid bilayer [41] = test: Induction of ionic transport in azolectin bilayer membrane assessed as irregular disturbance in membrane permeability in presence of HEPES buffer by electrophysiology technique
Lipid bilayer [42] = test: Induction of ionic transport in azolectin bilayer membrane assessed as membrane rupture in presence of HEPES buffer by electrophysiology technique
Lipid bilayer [43] = test: Induction of current generation in azolectin bilayer membrane upto 10 uM in presence of HEPES buffer by electrophysiology technique; assay type: cell membranes

CC[C@@H](C(=O)[C@@H](C)[C@@H](O)[C@H](C)[C@@H]1O[C@@H]([C@@H](CC)C(=O)O)CC[C@@H]1C)[C@H]1O[C@]2(C=C[C@@H](O)[C@]3(CC[C@@](C)([C@H]4CC[C@](O)(CC)[C@H](C)O4)O3)O2)[C@H](C)C[C@@H]1C [SALINOMYCIN]
IC50 (SW480): 1360 nM
IC50 (SW-620): 1810 nM
IC50 (PC-3): 3000 nM
IC50 (MDA-MB-231 [1]): 1220 nM
IC50 (A549 [2]): 1860 nM
IC50 at 72 h [3]: 800 nM
IC50 at 72 h [4]: 1440 nM
selectivity ratio [5]: 0.6
selectivity ratio [6]: 0.4
selectivity ratio [7]: 0.3
selectivity ratio [8]: 0.66
selectivity ratio [9]: 0.4
selectivity ratio [10]: 1.1
selectivity ratio [11]: 0.8
selectivity ratio [12]: 0.5
selectivity ratio [13]: 1.2
selectivity ratio [14]: 0.8
Activity (A549 [15]): Active; Slight Increase In Mfi Is Observed
Activity (MDA-MB-231 [16]): Active; Slight Increase In Mfi Is Observed
Activity (A549 [17]): inactive
Activity (Mitochondrial membrane [18]): 18.8%
Activity (MDA-MB-231 [19]): Active
Activity (A549 [20]): 84.56%
Activity (A549 [21]): 9.72%
Activity (A549 [22]): 2.05%
Activity (A549 [23]): 3.67%
Activity (MDA-MB-231 [24]): 76.94%
Activity (MDA-MB-231 [25]): 8.6%
Activity (MDA-MB-231 [26]): 11.49%
Activity (MDA-MB-231 [27]): 2.97%
Activity (Mitochondrial membrane [28]): 23.4%
Activity (Mitochondrial membrane [29]): 76.7%
Activity (Mitochondrial membrane [30]): 91.2%
Activity (A549 [31]): Active; Slight Insignificant Increase In Ros Level Was Observed
Activity (MDA-MB-231 [32]): Active; Slight Insignificant Increase In Ros Level Was Observed
MIC (Staphylococcus aureus [33]): 0.5 µg/mL (≈ 0.666 µM)
MIC (Staphylococcus aureus [34]): 0.5 µg/mL (≈ 0.666 µM)
MIC (Staphylococcus aureus [35]): 0.5 µg/mL (≈ 0.666 µM)
MIC (Staphylococcus aureus [36]): 0.5 µg/mL (≈ 0.666 µM)
MIC [37]: 0.5 µg/mL (≈ 0.666 µM)
MIC [38]: 1 µg/mL (≈ 1.33 µM)
MIC (Escherichia coli): > 256 µg/mL
MIC (Pseudomonas aeruginosa): > 256 µg/mL
Activity (A549 [39]): inactive
Activity (Lipid bilayer [40]): inactive
Activity (Lipid bilayer [41]): inactive
Activity (Lipid bilayer [42]): inactive
Activity (Lipid bilayer [43]): inactive
